The values that follow come from ChEMBL document CHEMBL1201862, “PubChem BioAssay data set” (2004).

Calls of active or inactive are those of the source.

The nature of experiment [1]: Late-stage results from the probe development effort to identify antagonists of arginine vasopressin receptor 1a (AVPR1a): fluorescence-based cell-based dose response OXTR inhibition counterscreen assay. Type of experiment: functional. For orientation: Counterscreens check selectivity or assay interference.
Another experiment deals with Vasopressin V2 receptor (Homo sapiens, UniProt P30518). Nature of the experiment: Late-stage results from the probe development effort to identify antagonists of arginine vasopressin receptor 1a (AVPR1a): fluorescence-based cell-based dose response AVPR2 inhibition counterscreen assay. It counts as functional.
Sequence of Vasopressin V2 receptor (P30518 whole entry): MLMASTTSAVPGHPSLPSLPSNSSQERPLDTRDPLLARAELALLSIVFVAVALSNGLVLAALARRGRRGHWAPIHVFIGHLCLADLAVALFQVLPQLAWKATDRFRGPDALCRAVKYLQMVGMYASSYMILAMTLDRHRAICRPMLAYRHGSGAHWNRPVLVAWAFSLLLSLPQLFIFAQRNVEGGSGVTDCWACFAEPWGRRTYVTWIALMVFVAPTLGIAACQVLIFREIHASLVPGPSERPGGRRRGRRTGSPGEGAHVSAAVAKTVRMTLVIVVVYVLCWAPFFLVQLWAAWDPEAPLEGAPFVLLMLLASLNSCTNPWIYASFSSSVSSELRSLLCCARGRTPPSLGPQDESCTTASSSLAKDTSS
The nature of experiment [2]: Late-stage results from the probe development effort to identify antagonists of arginine vasopressin receptor 1a (AVPR1a): fluorescence-based cell-based dose response AVPR1a inhibition assay. Type of experiment: functional.
The target of another experiment is Vasopressin V1b receptor (Homo sapiens, UniProt P47901). As to the kind of experiment: Late-stage results from the probe development effort to identify antagonists of arginine vasopressin receptor 1a (AVPR1a): fluorescence-based cell-based dose response AVPR1b inhibition counterscreen assay. Type of experiment: functional.
Sequence of Vasopressin V1b receptor (P47901 whole entry): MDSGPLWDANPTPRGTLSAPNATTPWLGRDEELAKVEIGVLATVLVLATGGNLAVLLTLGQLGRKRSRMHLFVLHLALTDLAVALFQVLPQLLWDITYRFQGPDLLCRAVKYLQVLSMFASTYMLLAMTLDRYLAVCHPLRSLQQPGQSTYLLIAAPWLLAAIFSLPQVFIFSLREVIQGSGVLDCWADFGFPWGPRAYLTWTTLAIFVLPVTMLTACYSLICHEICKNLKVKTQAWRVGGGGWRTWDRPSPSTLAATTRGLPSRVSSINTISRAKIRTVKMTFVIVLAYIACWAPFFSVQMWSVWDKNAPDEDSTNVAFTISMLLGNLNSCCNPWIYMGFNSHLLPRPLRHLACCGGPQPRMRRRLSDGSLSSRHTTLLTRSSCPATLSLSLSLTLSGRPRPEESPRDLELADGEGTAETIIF
Experiment [3] in a line: P. falciparum Dd2 growth inhibitors, dose response, SYBR Green, dry powder samples, set 9 (AID 1159568). Type of experiment: functional, cell-based.
The nature of experiment [4]: inhibitors of PGC1a acetylation in cells, dose response, cell-based, cherry-picked samples (AID 720514).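 Note: potency may reflect raised or lowered acetylation signal.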 It counts as functional.
The nature of experiment [5]: A549 cell cytotoxicity, dose response, cytotoxicity control, 24 h, CellTiter-Glo luminescence, cherry-picks (AID 1053115). Type of experiment: functional, cell-based. Particulars: A549, 24 h. Background: In ATP-based viability assays light output follows the ATP content of the culture.
Experiment [6] deals with T1, Oxysterols receptor LXR-beta (Homo sapiens, UniProt P55055).
T1 sequence (P55055 whole entry): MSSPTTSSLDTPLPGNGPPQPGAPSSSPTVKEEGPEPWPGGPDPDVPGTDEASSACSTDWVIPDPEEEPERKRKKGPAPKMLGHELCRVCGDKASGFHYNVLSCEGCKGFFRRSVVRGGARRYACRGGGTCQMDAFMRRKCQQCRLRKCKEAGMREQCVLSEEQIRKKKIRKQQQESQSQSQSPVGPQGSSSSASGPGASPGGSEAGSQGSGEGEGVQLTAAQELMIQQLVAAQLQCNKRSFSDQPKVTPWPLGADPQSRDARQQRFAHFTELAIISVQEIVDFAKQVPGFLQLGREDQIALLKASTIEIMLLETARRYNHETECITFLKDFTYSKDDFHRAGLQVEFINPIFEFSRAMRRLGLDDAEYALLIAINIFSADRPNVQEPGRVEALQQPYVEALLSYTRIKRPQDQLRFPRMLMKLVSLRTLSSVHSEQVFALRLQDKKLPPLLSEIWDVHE
Type of experiment: functional, cell-based.

Experiment [7] is described as follows: A549 cell cytotoxicity, dose response, cytotoxicity control, plate reader, dry powder, set 6 (AID 743312). Type of experiment: functional, cell-based.
Experiment [8] can be described thus: HepG2 cell cytotoxicity, dose response, cytotoxicity control, plate reader, dry powder, set 6 (AID 743311). Type of experiment: functional, cell-based.
A short description of experiment [9]: P. falciparum Dd2 growth inhibitors, dose response, SYBR Green, cherry-picked samples (AID 1159567). Type of experiment: functional, cell-based.
A short description of experiment [10]: P. falciparum ATP4 D1247Y mutant growth inhibitors, dose response, NITD609-resistant line, SYBR Green, dry powder (AID 1159571).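 Note: parasites synchronized at ring stage by sorbitol before testing.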 It counts as functional, cell-based.
Experiment [11] can be described thus: P. falciparum 3D7-ScDHODH growth inhibitors, dose response, SYBR Green, dry powder samples (AID 1159570).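 Note: parasite growth measured after 72 hours of compound exposure.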 It counts as functional, cell-based.
Experiment [12] can be described thus: P. falciparum Dd2 growth inhibitors, dose response, SYBR Green, dry powder samples (AID 1159566).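 Note: potency for growth inhibition with lower SYBR green DNA signal.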 It counts as functional, cell-based.
A short description of experiment [13]: antifungal activity, alamar blue, dry powder, counter-screen for C. neoformans cell wall antifungals, dose response (AID 743128). Type of experiment: functional, organism-based. In general terms: Resazurin is reduced to fluorescent resorufin, in cell work by metabolically active cells.
Another experiment concerns the target Phospholipase D1 (Homo sapiens, UniProt Q13393). As to the kind of experiment: PLD1 Cellular Concentration Response Study. It counts as functional.
The next experiment has as its target Phospholipase D2 (Homo sapiens, UniProt O14939). Nature of the experiment: PLD2 Cellular Concentration Response Study. It counts as functional.
Experiment [14] is described as follows: HeLa 2N DNA content increase, dose response, cell-based, IC50 (AID 1117349). It counts as functional.
Experiment [15] can be described thus: HeLa 4N DNA content increase, dose response, cell-based, IC50 (AID 1117351). Type of experiment: functional.
Experiment [16] is described as follows: Dose-response inhibition of insulin secretion in a rat insulinoma line at 5 mM glucose (AID 1117331). It counts as functional, cell-based. The following applies: INS-1E.
Experiment [17] in a line: Glucagon-like peptide 1 release potency, NCI-H716 cell line, dose-response, half-maximal inhibitory concentration (AID 1117344). Type of experiment: functional, cell-based.
Experiment [18] in a line: half-maximal inhibitory concentration for glucagon-like peptide-1 release, STC-1 cell line, dose-response (AID 1117345). It counts as functional, cell-based.

The IC50 is the concentration that gives 50% inhibition. As usually defined, the AC50 is the concentration at which the activity in the assay is half-maximal. What is called EC50 is the concentration needed to bring the measured effect to its halfway point.

Sequence of Phospholipase D2 (O14939 whole entry): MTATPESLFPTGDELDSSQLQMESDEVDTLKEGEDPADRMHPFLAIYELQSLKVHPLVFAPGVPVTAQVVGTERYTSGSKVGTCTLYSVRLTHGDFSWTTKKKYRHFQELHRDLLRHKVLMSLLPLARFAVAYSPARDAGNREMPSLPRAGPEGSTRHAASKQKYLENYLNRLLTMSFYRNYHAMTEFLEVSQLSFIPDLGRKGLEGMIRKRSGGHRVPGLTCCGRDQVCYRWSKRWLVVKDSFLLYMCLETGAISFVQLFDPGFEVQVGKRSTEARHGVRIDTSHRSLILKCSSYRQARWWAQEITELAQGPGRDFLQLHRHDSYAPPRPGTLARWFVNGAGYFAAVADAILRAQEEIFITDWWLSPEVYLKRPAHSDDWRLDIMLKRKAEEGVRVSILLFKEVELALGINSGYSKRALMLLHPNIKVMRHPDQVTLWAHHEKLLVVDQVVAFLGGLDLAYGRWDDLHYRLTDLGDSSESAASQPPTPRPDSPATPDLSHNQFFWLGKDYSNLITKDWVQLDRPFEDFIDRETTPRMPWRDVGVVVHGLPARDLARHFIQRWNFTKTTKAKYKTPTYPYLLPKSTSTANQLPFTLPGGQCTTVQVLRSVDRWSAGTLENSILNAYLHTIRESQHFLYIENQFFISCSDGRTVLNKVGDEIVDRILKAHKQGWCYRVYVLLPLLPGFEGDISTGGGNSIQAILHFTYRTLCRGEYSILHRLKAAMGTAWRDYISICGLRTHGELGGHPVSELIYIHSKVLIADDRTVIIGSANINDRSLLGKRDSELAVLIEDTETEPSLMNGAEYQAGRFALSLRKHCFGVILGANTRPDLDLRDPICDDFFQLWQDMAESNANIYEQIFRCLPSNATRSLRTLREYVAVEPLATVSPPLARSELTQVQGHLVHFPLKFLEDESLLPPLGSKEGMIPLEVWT
Sequence of Phospholipase D1 (Q13393 whole entry): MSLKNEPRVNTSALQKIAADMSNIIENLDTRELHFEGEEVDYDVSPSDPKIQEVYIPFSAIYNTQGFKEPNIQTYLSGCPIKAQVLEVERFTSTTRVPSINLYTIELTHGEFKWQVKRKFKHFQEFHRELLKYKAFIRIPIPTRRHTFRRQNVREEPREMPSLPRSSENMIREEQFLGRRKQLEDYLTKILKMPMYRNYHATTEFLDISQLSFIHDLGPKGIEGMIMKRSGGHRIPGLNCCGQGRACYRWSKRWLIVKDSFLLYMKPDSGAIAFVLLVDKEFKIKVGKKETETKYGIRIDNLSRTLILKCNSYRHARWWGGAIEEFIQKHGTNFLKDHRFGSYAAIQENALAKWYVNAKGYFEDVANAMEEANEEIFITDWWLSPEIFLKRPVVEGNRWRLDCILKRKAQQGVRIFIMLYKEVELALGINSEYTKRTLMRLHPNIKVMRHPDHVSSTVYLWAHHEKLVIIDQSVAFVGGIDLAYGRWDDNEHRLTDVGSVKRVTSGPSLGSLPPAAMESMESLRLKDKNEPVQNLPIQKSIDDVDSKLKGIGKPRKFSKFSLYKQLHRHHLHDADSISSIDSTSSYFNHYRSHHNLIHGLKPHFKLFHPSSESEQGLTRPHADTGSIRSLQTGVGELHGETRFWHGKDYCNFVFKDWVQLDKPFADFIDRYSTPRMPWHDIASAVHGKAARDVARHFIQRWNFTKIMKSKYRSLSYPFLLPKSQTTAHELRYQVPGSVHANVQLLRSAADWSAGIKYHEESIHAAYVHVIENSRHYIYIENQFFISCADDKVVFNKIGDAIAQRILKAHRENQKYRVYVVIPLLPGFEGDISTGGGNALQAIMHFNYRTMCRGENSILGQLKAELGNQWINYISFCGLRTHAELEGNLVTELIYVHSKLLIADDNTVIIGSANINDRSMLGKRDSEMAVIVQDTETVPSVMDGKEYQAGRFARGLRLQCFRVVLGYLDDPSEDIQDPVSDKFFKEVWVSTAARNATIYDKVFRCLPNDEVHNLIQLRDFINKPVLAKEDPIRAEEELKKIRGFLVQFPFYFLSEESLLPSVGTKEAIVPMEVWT

Consider `O=C(C1CCN(c2cc(C(F)(F)F)ccn2)CC1)N(CC1CC1)c1ccc(Cl)cc1`, for which the IC50 is > 50 µM (inactive) in [1], > 50 µM (inactive) at Vasopressin V2 receptor, 0.0367 µM (active) in experiment [2] and > 50 µM (inactive) at Vasopressin V1b receptor.
As for `Fc1cccc(CN2C[C@@H]3N[C@H](C2)[C@@H]3c2ccc(/C=C/c3ccccc3)cc2)c1`, the AC50 is 4.6 µM (active) in experiment [3] and 13.4 µM (active) in [4].
In the case of `CN1c2ccc(-c3ccc(C#N)cc3)cc2[C@@H]2[C@@H](CCN2C(=O)C2CCCCC2)[C@H]1CO`, the AC50 in experiment [5] is 47.5 µM (active).
For the compound `Cc1csc(N/N=C/c2ccccc2F)n1`, the EC50 (in the experiment “cells”; in experiment [6]) was > 67.6 µM (inactive) throughout.
Consider `Sc1nc2cccc(Cl)c2n1CCOc1ccccc1`, for which the AC50 in experiment [7] is 20.9 µM (active); in [8] it was > 52 µM (inactive).
With `Cc1ccc(-c2ccccc2[C@H]2[C@@H](C#N)N(C(=O)c3cccc(F)c3)[C@H]2CO)cc1`, the half-maximal activity concentration (AC50) in [9] is 2.52 µM (active); in experiment [10], 6.78 µM (active); in [11], 1.49 µM (active); in experiment [12], 1.26 µM (active).
As for `CCOC(=O)c1c(-c2ccc(F)cc2)csc1NC(=O)CN1CCN(CC)CC1`, the AC50 in [13] was 42.5 µM (active).
Turning to `COc1cccc(C(=O)N2CNC(=O)C23CCN(CCNC(=O)c2ccc4ccccc4c2)CC3)c1`, the IC50 was 19 µM (active) at Phospholipase D1 and 2.05 µM (active) on Phospholipase D2.
In the case of `CCCCCCCCCCCCCCCCCCNC(=O)OC1CCN(C(=O)OC[C@H](COC(=O)N(Cc2cccc[n+]2CC)C(=O)c2ccccc2OC)OC)CC1` [MINOPAFANT], the IC50 is > 10 µM (inactive) in experiment [14]; > 10 µM (inactive) in experiment [15]; 21.7 µM (inactive) in experiment [16]; 9.52 µM (inactive) in [17]; 13.8 µM (inactive) in [18].
